Results reported in patent publication US20150208658A1, “METHODS OF SOIL PEST CONTROL” (Syngenta Participations AG, priority 2012, published 2015).
Like-named read-outs stand apart in the source and are kept apart here.

Key:
[1] = tested on: Diabrotica balteata; test: Diabrotica balteata (Corn Rootworm): 24-well microtiter plate with artificial diet, L2 larvae, larval mortality; format: in vivo; details: for pest or weed control at 50 µg/mL / pest or weed control at 200 ppm: Diabrotica balteata, 120 h; for pest or weed control at 50 µg/mL: read-out: control of Diabrotica balteata at 50 ppm or less; for pest or weed control at 200 ppm: read-out: control of Diabrotica balteata; for Control/%: comparative example
Procedure: Diabrotica balteata (Corn Rootworm)
[…] After drying, the MTP's are infested with L2 larvae (6-10 per well). After an incubation period of 5 days, samples are checked for larval mortality.
Compounds are tested according to the above method.

[2] = tested on: Diabrotica balteata; test: Diabrotica balteata (Banded Cucumber Beetle): treated corn seeds sown in soil pots, seedlings infested with 3rd stage larvae; format: in vivo; details: seed treatment, 6 days incubation
Procedure: Diabrotica balteata (Banded Cucumber Beetle)
Treated corn seeds are sown in a 350 ml pot filled with soil. Two weeks after sowing phytotoxicity (lack of shoot—missing emergence) in comparison to the control is estimated and expressed in percentage. Furthermore, corn seedlings are infested with 3rd stage larvae of Diabrotica balteata. After an incubation period of 6 days survived larvae are counted and larval growth is assessed. Larval growth indicates the number of larvae with size differences between the larvae in the control and treatments, expressed in percentage.

[3] = 50 ppm or less, L2 larvae, 5 days
[4] = application rate 200 ppm (concentration in well 18 ppm), L2 larvae, 5 days

In the case of `CCC(=O)NC1CCc2cc(N3CCC(c4cc(C(F)(F)F)cc(C(F)(F)F)c4)(C(F)(F)F)C3)ccc21` (stereo not shown) [Compound E6, N-[5-[3-[3,5-bis(trifluoromethyl)phenyl]-3-(trifluoromethyl)pyrrolidin-1-yl]indan-1-yl]propanamide], the pest or weed control at 50 µg/mL [1, 3] is reported as > 80% and the pest or weed control at 200 ppm [1, 4] is reported as ≥ 80%.

For `N#Cc1cc(C2=NCC(c3cc(Cl)c(Cl)c(Cl)c3)(C(F)(F)F)C2)ccc1-n1cncn1` (stereo not shown) [Compound C2, 2-(1,2,4-triazol-1-yl)-5-[3-(3,4,5-trichlorophenyl)-3-(trifluoromethyl)-2,4-dihydropyrrol-5-yl]benzonitrile], the “% larval mortality” value ([2]; application rate 0.3 mg/seed) was 44%, the pest or weed control at 50 µg/mL [1, 3] was > 80% and the pest or weed control at 200 ppm [1, 4] was ≥ 80%.

`O=C(NC1CCc2cc(C3=NCC(c4cc(Cl)cc(Cl)c4)(C(F)(F)F)C3)ccc21)C1CC1` (stereo not shown) [Compound E4, N-[5-[3-(3,5-dichlorophenyl)-3-(trifluoromethyl)-2,4-dihydropyrrol-5-yl]indan-1-yl]cyclopropanecarboxamide] was tested, and the pest or weed control at 50 µg/mL [1, 3] was > 80% and the pest or weed control at 200 ppm [1, 4] was ≥ 80%.

`FC(F)(F)C1(c2cc(Cl)cc(Cl)c2)CC(c2ccc(-n3cncn3)cc2)=NO1` (stereo not shown) [reference compound] showed a Control/% ([1]; application rate 3 ppm) of 0% and a Control/% ([1]; application rate 12.5 ppm) of 85%.

`N#Cc1cc(C2=NOC(c3cc(Cl)cc(Cl)c3)(C(F)(F)F)C2)ccc1-n1cncn1` (stereo not shown) [drawing 76] gave a Control/% ([1]; application rate 3 ppm) of 65% and a Control/% ([1]; application rate 12.5 ppm) of 100%.

In the case of `O=C(NC1CCc2cc(C3=NCC(c4cc(Cl)cc(Cl)c4)(C(F)(F)F)C3)ccc21)C(F)(F)F` (stereo not shown) [Compound E5, N-[5-[3-(3,5-dichlorophenyl)-3-(trifluoromethyl)-2,4-dihydropyrrol-5-yl]indan-1-yl]-2,2,2-trifluoro-acetamide], the pest or weed control at 50 µg/mL [1, 3] is reported as > 80% and the pest or weed control at 200 ppm [1, 4] is reported as ≥ 80%.

For `N#Cc1cc(C2=NOC(c3cc(Cl)c(F)c(Cl)c3)(C(F)(F)F)C2)ccc1-n1cncn1` (stereo not shown) [Compound C3], the “% larval mortality” value ([2]; application rate 1 mg/seed) was 83%, the pest or weed control at 200 ppm [1] was ≥ 80% and the pest or weed control at 50 µg/mL [1] was > 80%.

`O=C(CC(F)(F)F)NC1CCc2cc(C3=NOC(c4cc(Cl)cc(Cl)c4)(C(F)(F)F)C3)ccc21` (stereo not shown) [Compound E7] was tested, and the “% larval mortality” value ([2]; application rate 0.3 mg/seed) was 60%.

`C[C@H](NC(=O)C1CC1)c1ccc(N2CCC(c3cc(Cl)cc(Cl)c3)(C(F)(F)F)C2)cc1` (stereo partly drawn) [Compound B1, N-[(1S)-1-[4-[3-(3,5-dichlorophenyl)-3-(trifluoromethyl)pyrrolidin-1-yl]phenyl]ethyl]cyclopropanecarboxamide] was tested, and the pest or weed control at 50 µg/mL [1, 3] was > 80% and the pest or weed control at 200 ppm [1, 4] was ≥ 80%.

`CCC(=O)NC1CCc2cc(C3=NCC(c4cc(Cl)cc(Cl)c4)(C(F)(F)F)C3)ccc21` (stereo not shown) [Compound E3, N-[5-[3-(3,5-dichlorophenyl)-3-(trifluoromethyl)-2,4-dihydropyrrol-5-yl]indan-1-yl]propanamide] was tested, and the pest or weed control at 50 µg/mL [1, 3] was > 80% and the pest or weed control at 200 ppm [1, 4] was ≥ 80%.

`N#Cc1cc(C2=NOC(c3cc(Cl)c(F)c(Cl)c3)(C(F)(F)F)C2)ccc1-n1nc(C(F)(F)F)cc1C(F)(F)F` (stereo not shown) [Compound D10] was tested, and the “control of Diabrotica balteata” value [1, 4] was “No activity”.

For `N#Cc1cc(C2=NOC(c3cc(Cl)c(F)c(Cl)c3)(C(F)(F)F)C2)ccc1-n1ccc(C(F)(F)F)n1` (stereo not shown) [Compound D11], the “control of Diabrotica balteata” value [1, 4] was “No activity”.

For `N#Cc1cc(C2=NOC(c3cc(Cl)c(F)c(Cl)c3)(C(F)(F)F)C2)ccc1-n1cc(F)cn1` (stereo not shown) [Compound D2], the “% larval mortality” value ([2]; application rate 1 mg/seed) was 100%.

With `Cc1cc(C2=NOC(c3cc(Cl)cc(Cl)c3)(C(F)(F)F)C2)ccc1-n1cccn1` (stereo not shown) [Compound D5] the “control of Diabrotica balteata” value [1, 4] was “lower control”.

In the case of `CC(=O)NCc1ccc(C2=NCC(c3cc(Cl)cc(Cl)c3)(C(F)(F)F)C2)cc1Br` (stereo not shown) [Compound A5, N-{2-bromo-4-[4-(3,5-dichlorophenyl)-4-trifluoromethyl-4,5-dihydro-3H-pyrrol-2yl]-benzyl}acetamide], the pest or weed control at 50 µg/mL [1, 3] is reported as > 80% and the pest or weed control at 200 ppm [1, 4] is reported as ≥ 80%.

With `O=C(CC(F)(F)F)NC1CCc2cc(C3=NOC(c4cc(Cl)cc(Cl)c4)(C(F)(F)F)C3)ccc21` (stereo not shown) [drawing 74] the Control/% ([1]; application rate 3 ppm) was 100% and the Control/% ([1]; application rate 12.5 ppm) was 100%.

In the case of `C[C@H](NC(=O)C1CC1)c1ccc(C2(C(F)(F)F)CN=C(c3cc(Cl)c(Cl)c(Cl)c3)C2)cc1` (stereo partly drawn) [Compound B3, N-[(1S)-1-[4-[5-(3,4,5-trichlorophenyl)-3-(trifluoromethyl)-2,4-dihydropyrrol-3-yl]phenyl]ethyl]cyclopropanecarboxamide], the “% larval mortality” value ([2]; application rate 0.3 mg/seed) is reported as 80%, the pest or weed control at 50 µg/mL [1, 3] is reported as > 80% and the pest or weed control at 200 ppm [1, 4] is reported as ≥ 80%.

`N#Cc1cc(C2=NOC(c3cc(Cl)cc(Cl)c3)(C(F)(F)F)C2)ccc1-n1cncn1` (stereo not shown) [Compound C4] was tested, and the “% larval mortality” value ([2]; application rate 1 mg/seed) was 100%.

`CC(=O)N[C@@H](C)c1ccc(C2=NOC(c3cc(Cl)cc(Cl)c3)(C(F)(F)F)C2)cc1` (stereo partly drawn) [Compound B2, N-[(1S)-1-[4-[5-(3,5-dichlorophenyl)-5-(trifluoromethyl)-4H-isoxazol-3-yl]phenyl]ethyl]acetamide] was tested, and the pest or weed control at 200 ppm [1] was ≥ 80% and the pest or weed control at 50 µg/mL [1] was > 80%.

With `O=C(NCC(F)(F)F)N1CCc2cc(C3=NOC(c4cc(Cl)cc(Cl)c4)(C(F)(F)F)C3)ccc21` (stereo not shown) [reference compound] the Control/% ([1]; application rate 12.5 ppm) was 65%.

For `CC(=O)NC1CCc2cc(C3=NCC(c4cc(Cl)cc(Cl)c4)(C(F)(F)F)C3)ccc21` (stereo not shown) [Compound E2, N-[5-[3-(3,5-dichlorophenyl)-3-(trifluoromethyl)-2,4-dihydropyrrol-5-yl]indan-1-yl]acetamide], the pest or weed control at 50 µg/mL [1, 3] was > 80% and the pest or weed control at 200 ppm [1, 4] was ≥ 80%.

For `CCC(=O)NCc1ccc(C2=NOC(c3cc(Cl)cc(Cl)c3)(C(F)(F)F)C2)cc1Cl` (stereo not shown) [Compound A3], the pest or weed control at 200 ppm [1] was ≥ 80% and the pest or weed control at 50 µg/mL [1] was > 80%.

For `CCC(=O)NC1CCc2cc(C3=NOC(c4cc(Cl)cc(Cl)c4)(C(F)(F)F)C3)ccc21` (stereo not shown) [Compound E1], the “% larval mortality” value ([2]; application rate 0.3 mg/seed) was 83%.

With `CC(C)C(=O)NCc1ccc(C2=NOC(c3cc(Cl)cc(Cl)c3)(C(F)(F)F)C2)cc1Cl` (stereo not shown) [Compound A2] the pest or weed control at 200 ppm [1] was ≥ 80% and the pest or weed control at 50 µg/mL [1] was > 80%.

For `C[C@H](NC(=O)C1CC1)c1ccc(N2CCC(c3cc(C(F)(F)F)cc(C(F)(F)F)c3)(C(F)(F)F)C2)cc1` (stereo partly drawn) [Compound B4, N-[(1S)-1-[4-[3-[3,5-bis(trifluoromethyl)phenyl]-3-(trifluoromethyl)pyrrolidin-1-yl]phenyl]ethyl]cyclopropanecarboxamide], the “% larval mortality” value ([2]; application rate 0.3 mg/seed) was 78%, the pest or weed control at 50 µg/mL [1, 3] was > 80% and the pest or weed control at 200 ppm [1, 4] was ≥ 80%.

With `N#Cc1cnn(-c2ccc(C3=NOC(c4cc(Cl)c(F)c(Cl)c4)(C(F)(F)F)C3)cc2C#N)c1` (stereo not shown) [Compound D1] the “% larval mortality” value ([2]; application rate 1 mg/seed) was 100%.

With `CC(=O)NCc1ccc(N2CCC(c3cc(Cl)cc(Cl)c3)(C(F)(F)F)C2)cc1C` (stereo not shown) [Compound A4, N-{4-[3-(3,5-dichlorophenyl)-3-(trifluoromethyl)pyrrolidin1-yl]-2-methyl-benzyl)acetamide] the pest or weed control at 50 µg/mL [1, 3] was > 80% and the pest or weed control at 200 ppm [1, 4] was ≥ 80%.
